Test results from publication PMC6257622, “Discovery and Structure–Activity-Relationship Study of N-Alkyl-5-hydroxypyrimidinone Carboxamides as Novel Antitubercular Agents Targeting Decaprenylphosphoryl-β-D-ribose 2′-Oxidase” (Journal of Medicinal Chemistry, 2018).
In brackets after ≈: the same amount, converted by molar mass. Several values for one entry are separate records, joined by “and”; a condition that tells them apart may be missing. Equal values may be shown once. Read-outs that look alike come from different tables or passages of the source.

Experiments:
[1] = test system: Mtb strain H37Rv; test: MIC determination against Mtb H37Rv in different media; format: cell-based, Mycobacterium tuberculosis; conditions: for antitubercular activity (in words): SAR discussion
[2] = in vitro; format: cell-based; conditions: human; HepG2 cells in DMEM/10% FBS supplemented with glucose; read-out: Cytotoxicity (IC50) Glucose
[3] = test system: HepG2 cells; test: in vitro; format: cell-based
[4] = test system: Mtb in J774 murine macrophages; test: Intracellular killing assay in murine macrophage J774; conditions: 1–50-fold MIC, 4 or 7 days
Experimental: For the ex vivo efficacy test, J774 cells (5 × 10^5 cells/well) were seeded in flat-bottom 24-well plates (Corning Inc.) in DMEM GlutaMAX (Gibco/ThermoFisher Scientific) supplemented with 10% fetal-bovine serum, 20 mM HEPES, and 0.5 mM sodium pyruvate (hereafter abbreviated as DMEM/FBS). Cells were infected with Mtb (5 × 10^5 cells/well, MOI 1) for 24 h; this was followed by medium removal and washing (2×) with an equal volume of Dulbecco’s PBS. Infected cells were fed DMEM/FBS and exposed to test compounds at 1×, 10×, 20×, and 50× MIC in medium (500 μL/well). Cells were incubated at 37 °C with 95% humidity and 5% CO2 in an incubator for 7 days. The medium was changed every 4 days. After 4 and 7 days of incubation, 0.1% SDS was added to each well to lyse the J774 cells. After 5 min, the lysate was thoroughly mixed and diluted in 7H9/ADC, and appropriate dilutions were plated in duplicate on 7H11/OADC plates.

[5] = test system: Mtb cydC::aph strain; format: cell-based, Mycobacterium tuberculosis
[6] = test system: iniBAC promoter; format: cell-based, Mycobacterium tuberculosis
[7] = test system: recA and radA reporters; format: cell-based, Mycobacterium tuberculosis
[8] = test system: actively replicating Mtb; format: cell-based, Mycobacterium tuberculosis
[9] = test system: anaerobic nonreplicating Mtb cells; format: cell-based, Mycobacterium tuberculosis; conditions: 7 days exposure, 1–50× aerobic MIC, Wayne model
[10] = C57Bl/6 mice, oral, 10 mg/kg single dose
[11] = Mycobacterium tuberculosis, H37RV, Mtb H37Rv in GAST (Table 2), read-out: MIC GAST
[12] = Mycobacterium tuberculosis, H37RV, supplementary CSV, read-out: MIC in 7H9/ADC
[13] = Mycobacterium tuberculosis, H37RV, supplementary CSV, read-out: MIC in GAST/Fe
[14] = Mycobacterium tuberculosis, H37RV, read-out: MIC 7H9/ADC
[15] = HepG2 cells in DMEM/10% FBS with galactose (mitochondrial toxicity), read-out: Cytotoxicity (IC50) Galactose
[16] = Mtb H37Rv in GAST (Table 2), read-out: MIC GAST
[17] = supplementary CSV, read-out: MIC in 7H9/ADC
[18] = supplementary CSV, read-out: MIC in GAST/Fe
[19] = HepG2 cells in DMEM/10% FBS supplemented with glucose, read-out: Cytotoxicity (IC50) Glucose

| Molecule | MIC [1, 11] [µM] | MIC [1, 12] [µM] | MIC [1, 13] [µM] | MIC [1, 14] [µM] | IC50 [2] [µM] | IC50 [3, 15] [µM] | antitubercular activity (in words) [1] | further results |
| --- | --- | --- | --- | --- | --- | --- | --- | --- |
| Cn1c(Cc2ccccc2C(F)(F)F)nc(C(=O)CCc2ccccc2)c(O)c1=O [Compound P18, 5-Hydroxy-3-methyl-6-(3-phenylpropanoyl)-2-(2-(trifluoromethyl)benzyl)pyrimidin-4(3H)-one] | 12.5 | 100 | 12.5 | 100 | > 100 | > 100 | – | – |
| O=C(NCc1ccccc1)c1nc(Cc2ccccc2C(F)(F)F)[nH]c(=O)c1O [Compound P14, N-Benzyl-5-hydroxy-6-oxo-2-(2-(trifluoromethyl)benzyl)-1,6-dihydropyrimidine-4-carboxamide] | > 100 | > 100 | > 100 | > 100 | > 100 | > 100 | not tolerated | – |
| Cn1c(Cc2ccccc2C(F)(F)F)nc(C(=O)Nc2ccccc2)c(O)c1=O [Compound P05, 5-Hydroxy-1-methyl-6-oxo-N-phenyl-2-(2-(trifluoromethyl)benzyl)-1,6-dihydropyrimidine-4-carboxamide] | 1.6 | 18.8 | 1.6 | 18.8 | > 100 | > 100 | – | fold increase in MIC (reduced potency) compared with P01 [1]: around 4 fold |
| Cn1c(Cc2ccccc2C(F)(F)F)nc(C(=O)NCc2ccccc2F)c(O)c1=O [Compound P09, N-(2-Fluorobenzyl)-5-hydroxy-1-methyl-6-oxo-2-(2-(trifluoromethyl)benzyl)-1,6-dihydropyrimidine-4-carboxamide] | 0.59 | 4.7 | 0.59 | 4.7 | > 100 | > 100 | – | fold more potent than regioisomer P10 ([1]; o-F versus p-F): > 4 fold; activity against Mtb replication in J774 murine macrophages [4]: active |
| N-Benzyl-2-ethyl-5-hydroxy-1-methyl-6-oxo-1,6-dihydropyrimidine-4-carboxamide [Compound P03] | – | – | – | – | – | > 100 | complete loss of potency | MIC [1, 16]: >100 µM; MIC ([1]; read-out: MIC 7H9/ADC): >100 µM; MIC [1, 17]: >100 µM; MIC [1, 18]: >100 µM; IC50 [3, 19]: > 100 µM |
| Cn1c(Cc2ccccc2C(F)(F)F)nc(C(=O)NCc2ccc(F)cc2)c(O)c1=O [Compound P10, N-(4-Fluorobenzyl)-5-hydroxy-1-methyl-6-oxo-2-(2-(trifluoromethyl)benzyl)-1,6-dihydropyrimidine-4-carboxamide] | 2.3 | 18.8 | 2.3 | 18.8 | > 100 | > 100 | – | – |
| CC(c1ccccc1C(F)(F)F)c1nc(C(=O)NCc2ccccc2)c(O)c(=O)n1C (centres unmarked) [Compound P15, N-Benzyl-5-hydroxy-1-methyl-6-oxo-2-(1-(2-(trifluoromethyl)phenyl)ethyl)-1,6-dihydropyrimidine-4-carboxamide] | 3.1 | 18.3 | 3.1 | 18.3 | > 100 | > 100 | – | fold increase in MIC (reduced potency) compared with P01 [1]: 5 fold |
| Cn1c(Cc2ccccc2C(F)(F)F)nc(C(=O)NCc2ccc3c(c2)OCO3)c(O)c1=O [Compound P11, N-(Benzo[d][1,3]dioxol-5-ylmethyl)-5-hydroxy-1-methyl-6-oxo-2-(2-(trifluoromethyl)benzyl)-1,6-dihydropyrimidine-4-carboxamide] | 37.5 | > 100 | 37.5 | > 100 | > 100 | > 100 | – | – |
| Cn1c(Cc2ccccc2)nc(C(=O)NCc2ccccc2)c(O)c1=O [Compound P02, N,2-Dibenzyl-5-hydroxy-1-methyl-6-oxo-1,6-dihydropyrimidine-4-carboxamide] | 3.1 | 9.4 | 3.1 | 9.4 | > 100 | > 100 | – | – |
| CN(Cc1ccccc1)C(=O)c1nc(Cc2ccccc2C(F)(F)F)n(C)c(=O)c1O [Compound P12, N-Benzyl-5-hydroxy-N,1-dimethyl-6-oxo-2-(2-(trifluoromethyl)benzyl)-1,6-dihydropyrimidine-4-carboxamide] | > 100 | > 100 | > 100 | > 100 | > 100 | > 100 | loss of activity | – |
| Cn1c(Cc2ccccc2C(F)(F)F)nc(C(=O)NCc2ccccn2)c(O)c1=O [Compound P07, 5-Hydroxy-1-methyl-6-oxo-N-(pyridin-2-ylmethyl)-2-(2-(trifluoromethyl)benzyl)-1,6-dihydropyrimidine-4-carboxamide] | 1.2 | 3.1 | 1.2 | 3.1 | > 100 | > 100 | – | activity against Mtb replication in J774 murine macrophages [4]: active |
| N-Benzyl-5-hydroxy-6-methoxy-2-(2-(trifluoromethyl)benzyl)pyrimidine-4-carboxamide [Compound P16] | – | – | – | – | – | > 100 | inactive | MIC [1, 16]: 37.5 µM; MIC ([1]; read-out: MIC 7H9/ADC): >100 µM; MIC [1, 17]: >100 µM; MIC [1, 18]: 37.5 µM; IC50 [3, 19]: > 100 µM |
| CCn1c(Cc2ccccc2C(F)(F)F)nc(C(=O)NCc2ccccc2)c(O)c1=O [Compound P04, N-Benzyl-1-ethyl-5-hydroxy-6-oxo-2-(2-(trifluoromethyl)benzyl)-1,6-dihydropyrimidine-4-carboxamide] | 0.4 | 2.3 | 0.39 | 2.3 | > 100 | > 100 | – | MIC [1, 16]: 0.39 µM; activity against Mtb replication in J774 murine macrophages [4]: active |
| CC(NC(=O)c1nc(Cc2ccccc2C(F)(F)F)n(C)c(=O)c1O)c1ccccc1 (centres unmarked) [Compound P13, 5-Hydroxy-1-methyl-6-oxo-N-(1-phenylethyl)-2-(2-(trifluoromethyl)benzyl)-1,6-dihydropyrimidine-4-carboxamide] | > 100 | > 100 | > 100 | > 100 | > 100 | > 100 | loss of activity | – |
| Cn1c(Cc2ccccc2C(F)(F)F)nc(C(=O)NCc2ccccc2)c(O)c1=O [Compound P01, N-Benzyl-5-hydroxy-1-methyl-6-oxo-2-(2-(trifluoromethyl)benzyl)-1,6-dihydropyrimidine-4-carboxamide] | 0.59 | 4.7 | 0.59 | 4.7 ± 1.5 | > 100 | > 100 | – | MIC ([1]; Mycobacterium tuberculosis, H37RV, Mtb H37Rv, GAST medium (Table 1), read-out: MIC GAST): 0.4 ± 0.2 µM; MIC ([1]; Mycobacterium tuberculosis, H37RV, pH 6, read-out: MIC nitrite/butyrate): 12.5 µM; MIC ([1]; Mycobacterium tuberculosis, H37RV, read-out: MIC Chol): 1.6 µM; MIC ([1]; Mycobacterium tuberculosis, H37RV, read-out: MIC GBSA or DBSA): 3.1 µM; MIC ([1]; Mycobacterium tuberculosis, H37RV, read-out: MIC in 7H9/ADC): ~1.9 µg/mL; MIC ([1]; Mycobacterium tuberculosis, H37RV, read-out: MIC, DprE1 wild type): 3.13 µM; MIC ([1]; read-out: MIC 7H9/ADC): 4.7 µM; MIC CydKO [5]: 6.2 µM (≈ 2.59 µg/mL); reporter-gene assay cell wall [6]: positive; reporter-gene assay DNA damage [7]: no induction; logarithmic reduction in colony-forming units [8]: 1–2 log; bactericidal activity against anaerobic nonreplicating Mtb [9]: lacked bactericidal activity; AUC [10]: 1060 ng·h/mL; CL [10]: 9.48; Tmax [10]: 1.0 h; Vd [10]: 33.7 L/kg; Cmax ([10]; suspension): 250 ng/mL; T1/2 ([10]; 10 mg/kg): 4 h and 4.1 h; activity against Mtb replication in J774 murine macrophages [4]: active |
| Cn1c(Cc2ccccc2C(F)(F)F)nc(C(=O)NCc2cccnc2)c(O)c1=O [Compound P08, 5-Hydroxy-1-methyl-6-oxo-N-(pyridin-3-ylmethyl)-2-(2-(trifluoromethyl)benzyl)-1,6-dihydropyrimidine-4-carboxamide] | 4.7 | 18.8 | 4.7 | 18.8 | > 100 | > 100 | – | – |
| Cn1c(Cc2ccccc2C(F)(F)F)nc(C(=O)NCC2CCCCC2)c(O)c1=O [Compound P06, N-(Cyclohexylmethyl)-5-hydroxy-1-methyl-6-oxo-2-(2-(trifluoromethyl)benzyl)-1,6-dihydropyrimidine-4-carboxamide] | 12.5 | > 100 | 12.5 | > 100 | > 100 | > 100 | – | – |
| COc1c(C(=O)NCc2ccccc2)nc(Cc2ccccc2C(F)(F)F)n(C)c1=O [Compound P17, N-Benzyl-5-methoxy-1-methyl-6-oxo-2-(2-(trifluoromethyl)benzyl)-1,6-dihydropyrimidine-4-carboxamide] | > 100 | > 100 | > 100 | > 100 | > 100 | > 100 | inactive | – |
